According to patent US20240360081A1, “SULFONAMIDE OREXIN RECEPTOR AGONISTS AND USES THEREOF” (Jazz Pharmaceuticals Ireland Limited, priority 2021, published 2024):

Molecular target: T1, human recombinant OX2 (hOX2) receptor expressed in CHO cells (Homo sapiens, UniProt O43614)
T1 construct: host or cells: CHO cells (hOX2-CHO)
T1 sequence (O43614 1-444): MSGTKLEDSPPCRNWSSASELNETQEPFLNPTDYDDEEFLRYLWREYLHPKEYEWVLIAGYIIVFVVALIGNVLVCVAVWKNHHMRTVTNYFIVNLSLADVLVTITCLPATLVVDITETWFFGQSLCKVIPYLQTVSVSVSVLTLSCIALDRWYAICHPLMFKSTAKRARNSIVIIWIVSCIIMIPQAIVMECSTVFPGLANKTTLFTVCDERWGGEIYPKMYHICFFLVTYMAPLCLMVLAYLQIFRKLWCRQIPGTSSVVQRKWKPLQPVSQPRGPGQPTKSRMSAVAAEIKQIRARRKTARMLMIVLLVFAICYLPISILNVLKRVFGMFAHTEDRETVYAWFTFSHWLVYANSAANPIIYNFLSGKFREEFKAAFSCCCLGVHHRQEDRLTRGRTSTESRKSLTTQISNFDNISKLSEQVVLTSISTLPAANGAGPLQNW
Assay: IP-1 accumulation assay (IP-One HTRF) in hOX2-CHO cells
Format: cell-based
Settings: 60 min at 37° C., 11 points CRC, response as % of maximal OX-A response
Protocol: The accumulation of Inositol-1 Monophosphate (IP-1) was measured using IP-One HTRF® Terbium cryptate based assay (Cisbio) in human recombinant OX1 (hOX1) and at OX2 (hOX2) receptors expressed in CHO cells (DiscoverX) according to the manufacturer's instructions for cells tested in suspension.
hOX1-CHO and hOX2-CHO cells were seeded into white 384-well plates at a density of 20,000 cells/well in Hank's Balanced Salt Solution (HBSS) containing 20 mM HEPES pH 7.4, 50 mM, LiCl and 0.1% and Bovine Serum Albumin (BSA).
Compounds of the present disclosure were tested in a 11 points concentration response curve (CRC) serially diluted in neat DMSO at 200 fold concentrations and added by Echo acoustic liquid handling (Labcyte) to the cells (0.5% DMSO final in the assay). After 60 min of incubation at 37° C. detection reagents, IP1-d2 tracer and anti-IP1-cryptate were diluted in lysis buffer according to the manufacturer's descriptions and added to the cells.
Following 60 min incubation at room temperature, time-resolved fluorescence (HTRF) was measured at 615 nm and 665 nm by Envision Multilabel reader (Perkin Elmer) and the HTRF ratio (A665/A615x104) was calculated.
The IP-1 accumulation response was expressed as percentage of the maximal OX-A response.
Curve fitting and EC50 estimations were carried out using a four-parameter logistic model using XLfit Software. Mean data of EC50 are calculated from at least two independent experiments performed in duplicates.
In the Tables, below Category A corresponds to compounds displaying an […]<100 nM, Category B between 100 nM and 1,000 nM, Category C between 1,000 nM and 10,000 nM and Category D above 10,000 nM.

EC50 | Structure (SMILES)
> 10 µM | Cn1cccc(C(CNS(C)(=O)=O)CO[C@H]2CC[C@@H](c3ccccc3)CC2)c1=O (single isomer, unassigned; isomer 2) [Example 4b, (S or R) N-[2-(1-methyl-2-oxo-1,2-dihydropyridin-3-yl)-3-{[(CIS)-4-phenylcyclohexyl]oxy}propyl]methanesulfonamide—Isomer 2]
0.1 to 1 µM | Cc1cc(C(CNS(=O)(=O)N(C)C)CO[C@H]2CC[C@@H](c3cccc(F)c3)CC2)c(=O)n(C(F)F)c1 (single isomer, unassigned; isomer 2) [Example 5ac, (S or R) 1-(difluoromethyl)-3-[1-[(dimethylsulfamoyl)amino]-3-{[(CIS)-4-(3-fluorophenyl)cyclohexyl]oxy}propan-2-yl]-5-methyl-1,2-dihydropyridin-2-one—Isomer 2]
0.1 to 1 µM | Cc1cc(C(CNS(C)(=O)=O)CO[C@H]2CC[C@@H](c3cccc(F)c3)CC2)c(=O)n(C)c1 (single isomer, unassigned; isomer 2) [Example 5d, (S or R) N-[2-(1,5-dimethyl-2-oxo-1,2-dihydropyridin-3-yl)-3-{[(CIS)-4-(3-fluorophenyl)cyclohexyl]oxy}propyl]methanesulfonamide—Isomer 2]
1 to 10 µM | Cc1cc(C)[n+]([O-])c(C(CNS(C)(=O)=O)CO[C@H]2CC[C@@H](c3ccccc3)CC2)c1 (single isomer, unassigned; isomer 2) [Example 5l, (S or R) 2-[1-methanesulfonamido-3-{[(CIS)-4-phenylcyclohexyl]oxy}propan-2-yl]-4,6-dimethylpyridin-1-ium-1-olate—Isomer 2]
0.1 to 1 µM | Cc1cc(C(CNS(=O)(=O)CF)CO[C@H]2CC[C@@H](c3cccc(F)c3)CC2)c(=O)n(C)c1 (single isomer, unassigned; isomer 2) [Example 5o, (S or R) N-[2-(1,5-dimethyl-2-oxo-1,2-dihydropyridin-3-yl)-3-{[(CIS)-4-(3-fluorophenyl)cyclohexyl]oxy}propyl]-1-fluoromethanesulfonamide—Isomer 2]
1 to 10 µM | Cc1cc(C(CNS(C)(=O)=O)CO[C@H]2CC[C@@H](c3cccc(F)c3)CC2)c(=O)n(C(F)F)c1 (single isomer, unassigned; isomer 2) [Example 5z, (S or R) N-[2-[1-(difluoromethyl)-5-methyl-2-oxo-1,2-dihydropyridin-3-yl]-3-{[(CIS)-4-(3-fluorophenyl)cyclohexyl]oxy}propyl]methanesulfonamide—Isomer 2]

Second part, the compound before the results:

Structure (SMILES) | EC50
Cc1cccn(C(CO[C@H]2CC[C@@H](c3ccccc3)CC2)C(C)NS(C)(=O)=O)c1=O (single isomer, unassigned; isomer 3) [Example 3c, (2S or 2R) and (3R or 3S) N-[3-(3-methyl-2-oxo-1,2-dihydropyridin-1-yl)-4-{[(CIS)-4-phenylcyclohexyl]oxy}butan-2-yl]methanesulfonamide—Isomer 3] | > 10 µM
Cc1cccn(C(CO[C@H]2CC[C@@H](c3ccccc3)CC2)C(C)NS(C)(=O)=O)c1=O (single isomer, unassigned; isomer 4) [Example 3d, (2R or 2S) and (3S or 3R) N-[3-(3-methyl-2-oxo-1,2-dihydropyridin-1-yl)-4-{[(CIS)-4-phenylcyclohexyl]oxy}butan-2-yl]methanesulfonamide—Isomer 4] | 1 to 10 µM
CS(=O)(=O)NCC(CO[C@H]1CC[C@@H](c2ccccc2)CC1)n1ccccc1=O (stereo partly drawn) [Example 1, N-[2-(2-oxo-1,2-dihydropyridin-1-yl)-3-{[(CIS)-4-phenylcyclohexyl]oxy}propyl]methanesulfonamide] | 1 to 10 µM
Cc1cccn(C(CNS(C)(=O)=O)CO[C@H]2CC[C@@H](c3ccccc3)CC2)c1=O (stereo partly drawn) [Example 1c, N-[2-(3-methyl-2-oxo-1,2-dihydropyridin-1-yl)-3-{[(CIS)-4-phenylcyclo-hexyl]oxy}propyl] methane-sulfonamide] | 0.1 to 1 µM
CCc1cccn(C(CNS(C)(=O)=O)CO[C@H]2CC[C@@H](c3ccccc3)CC2)c1=O (stereo partly drawn) [Example 2, N-[2-(3-ethyl-2-oxo-1,2-dihydropyridin-1-yl)-3-{[(CIS)-4-phenylcyclohexyl]oxy}propyl]methanesulfonamide] | 1 to 10 µM
Cc1ccn(C(CNS(C)(=O)=O)CO[C@H]2CC[C@@H](c3ccccc3)CC2)n1 (stereo partly drawn) [Example 2aa, N-[2-(3-methyl-1H-pyrazol-1-yl)-3-{[(CIS)-4-phenylcyclohexyl]oxy}propyl]methanesulfonamide] | > 10 µM
Cc1cncn(C(CNS(C)(=O)=O)CO[C@H]2CC[C@@H](c3ccccc3)CC2)c1=O (stereo partly drawn) [Example 2aj, N-[2-(5-methyl-6-oxo-1,6-dihydropyrimidin-1-yl)-3-{[(CIS)-4-phenylcyclohexyl]oxy}propyl]methanesulfonamide] | > 10 µM
CS(=O)(=O)NCC(CO[C@H]1CC[C@@H](c2ccccc2)CC1)n1c(=O)ccc2ccccc21 (stereo partly drawn) [Example 2ak, N-[2-(2-oxo-1,2-dihydroquinolin-1-yl)-3-{[(CIS)-4-phenylcyclohexyl]oxy}propyl]methanesulfonamide] | > 10 µM
Cc1cc(C)c(=O)n(C(CNS(=O)(=O)C2CC2)CO[C@H]2CC[C@@H](c3cccc(F)c3)CC2)c1 (stereo partly drawn) [Example 2al, N-[2-(3,5-dimethyl-2-oxo-1,2-dihydropyridin-1-yl)-3-{[(CIS)-4-(3-fluorophenyl)cyclohexyl]oxy}propyl]cyclopropanesulfonamide] | < 0.1 µM
Cc1cc(C)c(=O)n(C(CNS(=O)(=O)CC(F)F)CO[C@H]2CC[C@@H](c3cccc(F)c3)CC2)c1 (stereo partly drawn) [Example 2ao, N-[2-(3,5-dimethyl-2-oxo-1,2-dihydropyridin-1-yl)-3-{[(CIS)-4-(3-fluorophenyl)cyclohexyl]oxy}propyl]-2,2-difluoroethane-1-sulfonamide] | 0.1 to 1 µM
Cc1cc(C)c(=O)n(C(CNS(=O)(=O)CC(F)(F)F)CO[C@H]2CC[C@@H](c3cccc(F)c3)CC2)c1 (stereo partly drawn) [Example 2ap, N-[2-(3,5-dimethyl-2-oxo-1,2-dihydropyridin-1-yl)-3-{[(CIS)-4-(3-fluorophenyl)cyclohexyl]oxy}propyl]-2,2,2-trifluoroethane-1-sulfonamide] | 0.1 to 1 µM
Cc1cc(C)c(=O)n(C(CNS(=O)(=O)N(C)C)CO[C@H]2CC[C@@H](c3cccc(F)c3)CC2)c1 (stereo partly drawn) [Example 2aq, 1-{1-[(dimethylsulfamoyl)amino]-3-{[(CIS)-4-(3-fluorophenyl)cyclohexyl]oxy}propan-2-yl}-3,5-dimethyl-1,2-dihydropyridin-2-one] | < 0.1 µM
Cc1cc(C)c(=O)n(C(CNS(=O)(=O)CF)CO[C@H]2CC[C@@H](c3cccc(F)c3)CC2)c1 (stereo partly drawn) [Example 2at, N-[2-(3,5-dimethyl-2-oxo-1,2-dihydropyridin-1-yl)-3-{[(CIS)-4-(3-fluorophenyl)cyclohexyl]oxy}propyl]-1-fluoromethanesulfonamide] | < 0.1 µM
COCCS(=O)(=O)NCC(CO[C@H]1CC[C@@H](c2cccc(F)c2)CC1)n1cc(C)cc(C)c1=O (stereo partly drawn) [Example 2ax, N-[2-(3,5-dimethyl-2-oxo-1,2-dihydropyridin-1-yl)-3-{[(CIS)-4-(3-fluorophenyl)cyclohexyl]oxy}propyl]-2-methoxyethane-1-sulfonamide] | < 0.1 µM
Cc1cc(C)c(=O)n(C(CNS(C)(=O)=O)COC2CCN(c3ncc(F)cn3)CC2)c1 (stereo not drawn) [Example 2ay, N-[2-(3,5-dimethyl-2-oxo-1,2-dihydropyridin-1-yl)-3-{[1-(5-fluoropyrimidin-2-yl)piperidin-4-yl]oxy}propyl]methanesulfonamide] | > 10 µM
CCC[C@H]1CC[C@@H](OCC(CNS(=O)(=O)N(C)C)n2cc(C)cc(C)c2=O)CC1 (stereo partly drawn) [Example 2bb, 1-{1-[(dimethylsulfamoyl)amino]-3-{[(CIS)-4-propylcyclohexyl]oxy}propan-2-yl}-3,5-dimethyl-1,2-dihydropyridin-2-one] | < 0.1 µM
Cc1cc(C)c(=O)n(C(CNS(=O)(=O)N(C)C)CO[C@H]2CC[C@@H](C3CC3)CC2)c1 (stereo partly drawn) [Example 2bc, 1-{1-[(dimethylsulfamoyl)amino]-3-{[(CIS)-4-cyclopropylcyclohexyl]oxy}propan-2-yl}-3,5-dimethyl-1,2-dihydropyridin-2-one] | 0.1 to 1 µM
Cc1cc(C)c(=O)n(C(CNS(C)(=O)=O)COC2CCC3(CCOC3)CC2)c1 (stereo not drawn) [Example 2bd, N-[2-(3,5-dimethyl-2-oxo-1,2-dihydropyridin-1-yl)-3-{2-oxaspiro[4.5]decan-8-yloxy}propyl]methanesulfonamide] | > 10 µM
